According to US6291676A, “Water-soluble derivatives of camptothecin/homocamptothecin” (priority 2000, dated 2001):
Read-outs that look alike come from different tables or passages of the source.

Experiments:
[1] = cited from earlier work
[2] = aqueous medium; cited from earlier work
[3] = Fluorescence anisotropy titration: association with negatively-charged DMPG vesicles; assay type: physicochemical; details: PBS buffer, pH 7.4, physiological temperature, DMPG
Description: (§1) Vesicle Preparation. Small unilamellar vesicle (SUV) suspensions were prepared the day of an experiment by the method of Burke et al. (T. G. Burke, A. K. Mishra, M. C. Wani, and M. E. Wall, Lipid Bilayer Partitioning and Stability of Camptothecin Drugs, Biochem., 32(20), 5352 (1993)). Briefly, stock lipid suspensions containing 200 mg/mL lipid in phosphate buffered saline (PBS, pH 7.4) were prepared by Vortex mixing for 5-10 min above the TM of the lipid. The lipid dispersions were then sonicated using a bath-type sonicator (Laboratory Supplies Co., Hicksville, N.Y.) for 3-4 h until they became optically clear. […] Each type of vesicle suspension was annealed for 30 min at 37° C. and then used in an experiment.
(§2) Fluorescence Instrumentation. Steady-state fluorescence measurements were obtained on a SLM Model 9850 spectrofluorometer with a thermostated cuvette compartment. This instrument was interfaced with an IBM PS/2 model 55 SX computer. Excitation and emission spectra were recorded with an excitation resolution of 8 nm and an emission resolution of 4 nm. In all cases spectra were corrected for background fluorescence and scatter from unlabeled lipids or from solvents by subtraction of the spectrum of a blank. Steady-state fluorescence intensity measurements were made in the absence of polarizers. Steady-state anisotropy (a) measurements were determined with the instrument in the "T-format" for simultaneous measurement of two polarized intensities. […] The anisotropy was calculated from a =(IVV -GIVH)/(IVV +2GIVH), where G=IHV /IHH and the subscripts refer to vertical and horizontal orientations of the excitation and emission polarizers, respectively.
(§3) Anisotropy measurements for camptothecins were conducted using exciting light in the range of 370 nm to 400 nm and long pass filters on each emission channel in order to isolate the drug's fluorescence signal from background scatter and/or residual fluorescence. […] The combination of exciting light and emission filters allowed us to adequately separate fluorescence from background signal. […]

[4] = Excited-state lifetime of camptothecin; assay type: physicochemical; details: 37° C
Description: We have examined the excited-state lifetime values of camptothecin in PBS, glycerol, and methanol at 37° C. The lifetime values were determined to be 4.7 ns, 3.8 ns, and 3.5 ns, respectively.

[5] = Fluorescence anisotropy titration: association with electroneutral DMPC vesicles; assay type: physicochemical; details: PBS buffer, pH 7.4, physiological temperature, DMPC
Description: as §1, §2, §3

topoisomerase I [6] = assay: Topoisomerase I mediated DNA cleavage (cleavable complex induction); assay type: biochemical; details: for dose response with respect to inducing DNA fragmentation: FIG. 10; for distribution of cleavage sites vs camptothecin or SN-38 / induction of cleavable complex formation: topoisomerase I; for induction of cleavable complex formation: 3'-32P-labeled oligonucleotide
Excerpt: (§4) Evaluation of the Relative Abilities of the Novel Polyamine Camptothecin Analogs to Induce Topoisomerase I Mediated DNA Single Strand Breaks. We have evaluated the abilities of the novel compounds of the present invention to inhibit the topoisomerase I enzyme. In these experiments the oligonucleotide was labeled at the 3'-end of the upper (scissile) strand with 32P-α-cordycepin and terminal transferase (Pommier, Y., Kohlhagen, G., Kohn, F., Leteurtre, F., Wani, M. C., and Wall, M. E. Proc. Natl. Acad. Sci. U.S.A. 92:8861-8865, 1995). Topoisomerase I (Top1) cleavage generates a 23mer that can be easily detected by electrophoresis and quantitated by Phosphorimager analysis. Tanizawa et al. (Tanizawa, A., Kohn, K. W., Kohlhagen, G., Leteurtre, F., and Pommier, Y. Biochemistry […]:7200-7206, 1995) have previously shown that camptothecin derivatives differ in the manner in which they stabilize the top1 cleavable complexes that they induce. The novel polyamine camptothecins of the present invention were compared in this assay. 0.35M NaCl was added to force top 1-mediated DNA religation and DNA cleavage was measured at various times after NaCl addition. FIG. 9 is a typical phosphoimager picture showing the timecourse of the effects of various camptothecins on the relaxation of DNA in the presence of topoisomerase I. Topoisomerase I-mediated cleavage generates DNA fragments that can be readily detected by electrophoresis and quantitated by phosphorimager analysis.
FIG. 10 is a phosphoimager picture showing the dose response of various camptothecin compounds described in the present invention on the relaxation of DNA in the presence of topoisomerase I. Topoisomerase I-mediated cleavage generates DNA fragments that can be readily detected by electrophoresis and quantitated by phosphorimager analysis as shown.
FIG. 11 contains a phosphoimager picture (bottom figure) showing the dose response effects of several of the novel polyamine camptothecins of the current invention on the relaxation of DNA in the presence of topoisomerase I. Topoisomerase I-mediated cleavage generates DNA fragments that can be readily detected by electrophoresis and quantitated by phosphorimager analysis (top figure).

topoisomerase I [7] = assay: Reversal of topoisomerase I cleavable complexes after NaCl addition; assay type: biochemical; details: after 0.35M NaCl; for stability of cleavable complexes: relative to camptothecin and SN-38
Excerpt: as §4

CC[C@@]1(O)C(=O)OCc2c1cc1n(c2=O)Cc2cc3c(CN(C)C)c(O)ccc3nc2-1 [topotecan]
steady-state fluorescence anisotropy (a) ([1]; PBS): 0.008 | increase of anisotropy value vs PBS ([1]; glycerol): 40 fold | increase of anisotropy value vs PBS ([1]; octanol): 9 fold

CC[C@@]1(O)C(=O)OCc2c1cc1n(c2=O)Cc2cc3ccccc3nc2-1 [Camptothecin]
half-life of lactone ring hydrolysis [2]: approximately 20 min | Overall association constant KDMPG [3]: 100 M⁻¹ | average excited-state lifetime, membrane-bound drug ([4]; DMPC bilayers): 3.7 ns | excited-state lifetime ([4]; PBS): 4.7 ns | excited-state lifetime ([4]; glycerol): 3.8 ns | excited-state lifetime ([4]; methanol): 3.5 ns | enhancement in the anisotropy value upon binding to vesicles ([1]; vesicles of either DMPC or DMPG): 21 fold | Overall association constant KDMPC [5]: 100 M⁻¹

CC[C@@]1(O)C(=O)OCc2c1cc1n(c2=O)Cc2c-1nc1ccccc1c2CCN=[N+]=[N-] [7-(2-azidoethyl)]
dose response with respect to inducing DNA fragmentation (topoisomerase I [6]): particularly good dose response

CCc1c2c(nc3ccc(O)cc13)-c1cc3c(c(=O)n1C2)COC(=O)[C@]3(O)CC [SN-38, 7-ethyl-10-hydroxycamptothecin, reference compound]
reversal of cleavable complexes (topoisomerase I [7]; compared with camptothecin): reversed more slowly than those induced by camptothecin

CC[C@@]1(O)C(=O)OCc2c1cc1n(c2=O)Cc2c-1nc1ccccc1c2CCCNC(=N)N [compound #8]
stability of cleavable complexes (topoisomerase I [7]): intermediate stabilities between camptothecin and SN-38 | distribution of cleavage sites vs camptothecin or SN-38 (topoisomerase I [6]): comparable to those generated by camptothecin or 7-ethyl-10-hydroxycamptothecin (SN-38) | induction of cleavable complex formation (topoisomerase I [6]): good inducers of cleavable complex formation

CC[C@@]1(O)C(=O)OCc2c1cc1n(c2=O)Cc2c-1nc1ccccc1c2CCNC(=N)N [compound #9]
stability of cleavable complexes (topoisomerase I [7]): intermediate stabilities between camptothecin and SN-38 | distribution of cleavage sites vs camptothecin or SN-38 (topoisomerase I [6]): comparable to those generated by camptothecin or 7-ethyl-10-hydroxycamptothecin (SN-38) | induction of cleavable complex formation (topoisomerase I [6]): good inducers of cleavable complex formation

CC[C@@]1(O)C(=O)OCc2c1cc1n(c2=O)Cc2c-1nc1ccccc1c2CCCCCN=[N+]=[N-] [7-(5-azidopentyl)]
dose response with respect to inducing DNA fragmentation (topoisomerase I [6]): particularly good dose response
